From patent US7994127B2, “Treatment of rett syndrome” (Massachusetts Institute of Technology, priority 2007, dated 2011)
“Also recorded” adds a separate entry of the source.

Experiments:
synaptic transmission = experiment: Synaptic transmission during direct application of the molecules; format: cell-based, mouse; conditions: direct application of the molecule
From the text: rhIGF1 produced a similar improvement as (1-3)IGF-1 in all maturational signatures measured, including (A) synaptic transmission levels, and (B) circuit stability (by preventing ocular dominance plasticity) in P60 MeCP2 KO mice.
The above data focused on the (1-3)IGF-1 fragment of IGF1 to promote IGF1 signaling. We also have tested the effect of the full-length IGF1 peptide already approved for pediatric administration in human patients (for short stature indications). We have verified a correspondence in the effects of (1-3)IGF-1 and recombinant human IGF1 (rhIGF1).

MeCP2 KO mice = experiment: Nocturnal activity measurements (infrared beam interruptions); format: in vivo, mouse; conditions: for nocturnal locomotor activity, beam interruptions over 10 hours (FIG. 4B): 6 to 17 weeks of age
Description: (§1) (1-3)IGF-1 treatment: For the survival measurements, the nocturnal activity analysis and the immunoblot analysis, (1-3) IGF-1 (Bachem Biosciences # H22468) was administered daily via intra-peritoneal injections (0.01 mg/g body weight, vehicle=saline, 0.01% BSA). The treatment was started at P15 and maintained throughout the course of the experiments. For intracellular physiology experiments, the mice were injected daily (0.01 mg/g body weight, vehicle=saline, 0.01% BSA) for 2 weeks, from P15 to P28-P32 when they were used for acute slice preparation. For optical imaging experiments, mice were injected with (1-3) IGF-1 (0.02 mg/g body weight, vehicle=saline, 0.01% BSA) daily from the day of the lid suture to the day of imaging. Slice physiology preparation: Coronal sections (300 μm thick) at or near sensorimotor cortex were cut in <4° C. ACSF using a Vibratome. Slices were incubated at 37° C. for 20 minutes after slicing, and at room temperature for the remainder of the experiment. Slices were transferred to a Warner chamber and recordings were taken from visually identified pyramidal neurons located in layer 5. Artificial cerebral spinal fluid (ACSF) contained 126 mM NaCl, 25 mM NaHCO3, 1 mM NaHPO4, 3 mM KCl, 2 mM MgSO4, 2 mM CaCl2, and 14 mM dextrose, was adjusted to 315-320 mOsm and 7.4 pH, and was bubbled with 95% O2/5% CO2. The intracellular pipette solution contained 100 mM potassium gluconate, 20 mM KCl, 10 mM HEPES, 4 mM MgATP, 0.3 mM NaGTP, and 10 mM Na-phosphocreatine. […] Cells were visualized with an Achroplan 40× water-immersion lens with infrared-DIC optics (Zeiss) and detected with an infrared camera (Hamamatsu) projecting to a video monitor. […] Then in current clamp ˜10 pulses (500 ms, 40-140 pA at 10 pA increments), were applied to quantify evoked firing rates and cellular excitability. […] Analysis was performed using a custom software package written in Matlab, with all events detected according to automated thresholds and blindly verified for each event individually by the experimenter. […]

Overall brain weight = format: in vivo, mouse; conditions: as a result of knockout and treatment (Discussion)
[1] = system: layer 5 pyramidal neurons of MeCP2−/y mice; experiment: Intracellular whole-cell recordings of spontaneous EPSCs in acute cortical slices; format: ex vivo, mouse
Description: as §1

[2] = system: layer 5 pyramidal neurons in motor cortex of MeCP2 knockout mice; experiment: Golgi staining, dendritic spine density and morphology; format: in vivo, mouse
wild type young mice = conditions: Tropea et al., 2006; cited from earlier work
[3] = P28, knockout treated vs knockout and wild-type

NCC(=O)N1CCC[C@H]1C(=O)N[C@@H](CCC(=O)O)C(=O)O [(1-3)IGF-1, glycyl-L-prolyl-L-glutamic acid]
synaptic activity / synaptic transmission levels (FIG. 9A) (synaptic transmission): striking enhancements of synaptic activity | nocturnal locomotor activity, beam interruptions over 10 hours (FIG. 4B) (MeCP2 KO mice; MeCP2 KO mice, 0.01 mg/g IP daily from P15, vs vehicle KO): elevated these levels; also recorded: more active than vehicle-treated KO animals (KO) but not as active as WT | nocturnal locomotor activity, beam interruptions over 10 hours (FIG. 4B) (MeCP2 KO mice; wild-type mice treated (WT-T) vs WT): failing to increase activity in wild-type animals; also recorded: not significantly more active than WT | nocturnal locomotor activity, beam interruptions over 10 hours (FIG. 6) (MeCP2 KO mice; young mice, 4 to 5 weeks of age): treatment did not change activity levels | overall brain weight (Overall brain weight): small changes were seen | mean EPSC amplitude per neuron, across all cells (FIG. 1C) ([1]; KO-T compared to KO, treated two weeks, mice 28-32 days old): modestly but significantly increased | spontaneous EPSC amplitude (FIG. 1B) ([1]; MeCP2−/y mice, 0.01 mg/g body weight IP daily for 2 weeks, P15 to P28-P32, vs vehicle-treated MeCP2−/y): significantly larger in amplitude | distributions of intervals between EPSC events (EPSC frequency, FIG. 1D) ([1]; between WT, and KO and KO-T groups): subtly but significantly modified | over-representation of thin (immature) spines (FIG. 2D) ([2]; P28, knockout treated vs knockout): not ameliorated by the treatment | % mushroom (mature) spines (FIG. 2D) [2, 3]: reduced in the knockout compared to wild-type and knockout treated with (1-3)IGF1 | dendritic spine density (spines per length of dendrite, FIG. 2C) [2, 3]: spine densities more similar to wild-type values | average dendritic branch thickness (FIG. 2E) ([2]; P28, wild-type, knockout, knockout treated): did not vary | OD plasticity (wild type young mice): abolish OD plasticity
